Tests used:
[1] = tested on: MOLT-3 (T cell acute lymphoblastic leukemia); experiment: Cytotoxic activity assay (XTT); assay type: cell-based, human; conditions: for IC50: Homo sapiens, MOLT-3, 48 h exposure, XTT, read-out: Cell lines, IC50 (μM) MOLT-3; for Selectivity Index (SI) values MOLT-3: SI = IC50 normal cell (MRC-5)/ IC50 cancer cell
Source text: (§1) The synthetic compounds were screened for their cytotoxic activity using standard MTT or XTT methods[30] against a panel of nine human cancer cell lines and one normal cell line, including MDA-MB-231 (triple-negative breast cancer), T-47D (hormone-dependent breast cancer), HepG2 (hepatocellular carcinoma), A549 (lung adenocarcinoma), H69AR (multidrug-resistant small cell lung carcinoma), HuCCA-1 (cholangiocarcinoma derived from a patient), HeLa (cervical carcinoma), and two leukemia cell lines, HL-60 (acute promyelocytic leukemia) and MOLT-3 (T cell acute lymphoblastic leukemia). MRC-5 normal embryonic lung fibroblast cell line was used to represent normal cells. Chemotherapeutic drugs, doxorubicin and etoposide, were used as positive controls.
(§2) The cells were seeded into 96-well plates (100 µL for adherent cells and 75 µL for suspended cells) at a density of 5000–20,000 cells per well, depending on their growth rates. Adherent and suspended cells were then allowed to grow at 37 °C with 95% humidity and 5% CO2 for 24 h and 30 min, respectively. The cytotoxicity assay was initiated by adding an equal volume of cell culture medium containing tested compound at predetermined concentrations. Following 48 h of exposure, cell viability was determined using MTT assay for adherent cells[51],[52]or XTT assay for suspeended cells. Briefly, for adherent cells, 100 µL of the MTT reagent was added to each well, and the microtiter plates were further incubated for 2.5–4 h. The medium was subsequently replaced with 100 µL of DMSO to dissolve the purple formazan before the absorbance at 550 nm was measured using a microplate reader (a SpectraMax Plus 384) with a reference wavelength of 650 nm. For suspended cells, 75 µL of the XTT reagent was added to each well, and the cells were further incubated for 4 h. Afterwards, the absorbance of orange formazan at 492 nm was measured with a reference wavelength of 690 nm using a microplate reader.

[2] = tested on: HL-60 (acute promyelocytic leukemia); experiment: Cytotoxic activity assay (XTT); assay type: cell-based, human; conditions: for IC50: Homo sapiens, HL-60, 48 h exposure, XTT, read-out: Cell lines, IC50 (μM) HL-60; for Selectivity Index (SI) values HL-60: SI = IC50 normal cell (MRC-5)/ IC50 cancer cell
Source text: as §1, §2

[3] = tested on: MRC-5 normal embryonic lung fibroblast cell line; experiment: Cytotoxic activity assay (MTT), normal cells; assay type: cell-based; conditions: Homo sapiens, MRC5, 48 h exposure, read-out: Cell lines, IC50 (μM) MRC-5
Source text: as §1, §2

[4] = tested on: HeLa (cervical carcinoma); experiment: Cytotoxic activity assay (MTT); assay type: cell-based, human; conditions: for IC50: Homo sapiens, 48 h exposure, MTT, read-out: Cell lines, IC50 (μM) HeLa; for Selectivity Index (SI) values HeLa: SI = IC50 normal cell (MRC-5)/ IC50 cancer cell
Source text: as §1, §2

[5] = tested on: T-47D (hormone-dependent breast cancer); experiment: Cytotoxic activity assay (MTT); assay type: cell-based, human; conditions: for IC50: Homo sapiens, T47D, 48 h exposure, MTT, read-out: Cell lines, IC50 (μM) T47-D; for Selectivity Index (SI) values T47-D: SI = IC50 normal cell (MRC-5)/ IC50 cancer cell
Source text: as §1, §2

[6] = tested on: A549 (lung adenocarcinoma); experiment: Cytotoxic activity assay (MTT); assay type: cell-based, human; conditions: for IC50: Homo sapiens, A549, 48 h exposure, MTT, read-out: Cell lines, IC50 (μM) A549; for Selectivity Index (SI) values A549: SI = IC50 normal cell (MRC-5)/ IC50 cancer cell
Source text: as §1, §2

[7] = tested on: MDA-MB-231 (triple-negative breast cancer); experiment: Cytotoxic activity assay (MTT); assay type: cell-based, human; conditions: for IC50: Homo sapiens, MDA-MB-231, 48 h exposure, MTT, read-out: Cell lines, IC50 (μM) MDA-MB-231; for Selectivity Index (SI) values MDA-MB-231: SI = IC50 normal cell (MRC-5)/ IC50 cancer cell
Source text: as §1, §2

[8] = tested on: HepG2 (hepatocellular carcinoma); experiment: Cytotoxic activity assay (MTT); assay type: cell-based, human; conditions: for IC50: Homo sapiens, HepG2, 48 h exposure, MTT, read-out: Cell lines, IC50 (μM) HepG2; for Selectivity Index (SI) values HepG2: SI = IC50 normal cell (MRC-5)/ IC50 cancer cell
Source text: as §1, §2

[9] = tested on: H69AR (multidrug-resistant small cell lung carcinoma); experiment: Cytotoxic activity assay (MTT); assay type: cell-based, human; conditions: for IC50: Homo sapiens, H69AR, 48 h exposure, MTT, read-out: Cell lines, IC50 (μM) H69AR; for Selectivity Index (SI) values H69AR: SI = IC50 normal cell (MRC-5)/ IC50 cancer cell
Source text: as §1, §2

[10] = tested on: HuCCA-1 (cholangiocarcinoma derived from a patient); experiment: Cytotoxic activity assay (MTT); assay type: cell-based, human; conditions: for IC50: Homo sapiens, HuCC-A1, 48 h exposure, MTT, read-out: Cell lines, IC50 (μM) HuCCA-1; for Selectivity Index (SI) values HuCCA-1: SI = IC50 normal cell (MRC-5)/ IC50 cancer cell
Source text: as §1, §2

| Structure (SMILES) | IC50 [1] | Selectivity Index (SI) values MOLT-3 [1] | IC50 [2] | Selectivity Index (SI) values HL-60 [2] | IC50 [3] | IC50 [4] | Selectivity Index (SI) values HeLa [4] | IC50 [5] | Selectivity Index (SI) values T47-D [5] | IC50 [6] | Selectivity Index (SI) values A549 [6] | IC50 [7] | Selectivity Index (SI) values MDA-MB-231 [7] | IC50 [8] | Selectivity Index (SI) values HepG2 [8] | IC50 [9] | Selectivity Index (SI) values H69AR [9] | IC50 [10] | Selectivity Index (SI) values HuCCA-1 [10] |
| --- | --- | --- | --- | --- | --- | --- | --- | --- | --- | --- | --- | --- | --- | --- | --- | --- | --- | --- | --- |
| C=C1CC[C@H]2C(C)(C)CCC[C@]2(C)[C@H]1CC/C(C)=C/C(=O)NCCc1c[nH]c2ccccc12 [Compound 4h, (E)-N-(2-(1H-Indol-3-yl)ethyl)-3-methyl-5-((1S,4aS,8aS)-5,5,8a-trimethyl-2-methylenedecahydronaphthalen-1-yl)pent-2-enamide] | 17.1 ± 0.57 µM | 2.8 | 16.8 ± 0.61 µM | 2.9 | 48.2 ± 1.06 µM | 20.7 ± 0.4 µM | 2.3 | > 120 µM | 0.4 | 41.4 ± 2.48 µM | 1.2 | 23.5 ± 0.36 µM | 2.1 | 40.5 ± 2.25 µM | 1.2 | 71.5 ± 2.47 µM | 0.7 | 42.4 ± 0.5 µM | 1.1 |
| C=C1CCC2C(C)(C)CCCC2(C)C1CCC(C)=CCO (stereo not shown) [Compound 2, anticopalol] | 32.2 ± 1.44 µM | 1.7 | 27.7 ± 0.31 µM | 2.0 | 54.15 ± 0.31 µM | 37.49 ± 0.04 µM | 1.4 | 52.33 ± 0.34 µM | 1.0 | 60.52 ± 0.22 µM | 0.9 | 31.77 ± 0.13 µM | 1.7 | 52.33 ± 0.34 µM | 1.0 | 111.9 ± 0.71 µM | 0.5 | 51.5 ± 0.24 µM | 1.1 |
| C=CCNC(=O)/C=C(\C)CC[C@H]1C(=C)CC[C@H]2C(C)(C)CCC[C@]12C [Compound 4b, (E)-N-Allyl-3-methyl-5-((1S,4aS,8aS)-5,5,8a-trimethyl-2-methylenedeca-hydronaphthalen-1-yl)pent-2-enamide] | 25.4 ± 0.51 µM | 5.7 | 22.7 ± 0.84 µM | 6.4 | > 120 µM | 79.61 ± 0.49 µM | 1.8 | > 120 µM | 1.0 | > 120 µM | 1.0 | 114.3 ± 0.72 µM | 1.3 | 107 ± 1.28 µM | 1.4 | > 120 µM | 1.0 | > 120 µM | 1.0 |
| C=C1CC[C@H]2C(C)(C)CCC[C@]2(C)[C@H]1CC/C(C)=C/C(=O)NCC(=O)O [Compound 4s, ((E)-3-methyl-5-((1S,4aS,8aS)-5,5,8a-trimethyl-2-methylenedecahydro-naphthalen-1-yl)pent-2-enoyl)glycine] | 84.14 ± 0.09 µM | 1.6 | 75.1 ± 3.24 µM | 1.8 | > 120 µM | > 120 µM | 1.0 | > 120 µM | 1.0 | > 120 µM | 1.0 | > 120 µM | 1.0 |  |  | > 120 µM | 1.0 | > 120 µM | 1.0 |
| COc1cc([C@@H]2c3cc4c(cc3[C@@H](O[C@@H]3O[C@@H]5CO[C@@H](C)O[C@H]5[C@H](O)[C@H]3O)[C@H]3COC(=O)[C@H]23)OCO4)cc(OC)c1O [ETO, etoposide, reference compound] | 0.07 ± 0.12 µM |  | 1.21 ± 0.15 µM |  |  |  |  |  |  |  |  |  |  |  |  |  |  |  |  |

Source: article PMC10439230 (Scientific Reports, 2023)
